For one series, the system named is CDK8/19. Put plainly: NFκB reporter assay in parental 293 reporter cells. It counts as cell-based. As to conditions: NFκB Activity Assay as described in Example 1; read-out: Inhibition Potency HEK293-NFkB-Luc Assay. The source says: We have used a cell-based assay to measure the inhibition of CDK8/19 activity by thienopyridine derivatives. This assay, based on the role of CDK8/19 in NFκB-driven transcription (Chen, 2017), measures the effects of CDK8/19 on the expression of firefly luciferase reporter from a NFκB-dependent promoter in 293 cells. Lentiviral vector pHAGE-NFKB-TA-LUC-UBC-dTomato-W (Addgene #49335) was introduced into 293 cells and a clonal cell line showing the strongest induction of luciferase expression upon TNFα treatment was established and used as the reporter cell line. As a control for CDK8/19 dependence of NFκB inhibition, we have also introduced the same reporter construct into 293 cells with CRISPR/CAS9 knockout of both CDK8 and CDK19.
FIG. 2C and Table 1 compares the IC50 values for different thienopyridines measured in the NFκB reporter assay in parental 293-derived reporter cell line to the cell-based activity values measured for the same compounds by Saito (2013) based on their effect on alkaline phosphatase (ALPase), an indicator of differentiation to osteoblasts in the mouse bone marrow stromal cell line ST2. The latter effects are expressed as EC200, a concentration that enhances ALPase activity to 200% of control.

The target of a further series is T1, CDC2L5 (Homo sapiens, UniProt Q14004).
T1 construct: purchased DiscoverX (KINOMEscan scanMAX service)
T1 sequence (Q14004 whole entry): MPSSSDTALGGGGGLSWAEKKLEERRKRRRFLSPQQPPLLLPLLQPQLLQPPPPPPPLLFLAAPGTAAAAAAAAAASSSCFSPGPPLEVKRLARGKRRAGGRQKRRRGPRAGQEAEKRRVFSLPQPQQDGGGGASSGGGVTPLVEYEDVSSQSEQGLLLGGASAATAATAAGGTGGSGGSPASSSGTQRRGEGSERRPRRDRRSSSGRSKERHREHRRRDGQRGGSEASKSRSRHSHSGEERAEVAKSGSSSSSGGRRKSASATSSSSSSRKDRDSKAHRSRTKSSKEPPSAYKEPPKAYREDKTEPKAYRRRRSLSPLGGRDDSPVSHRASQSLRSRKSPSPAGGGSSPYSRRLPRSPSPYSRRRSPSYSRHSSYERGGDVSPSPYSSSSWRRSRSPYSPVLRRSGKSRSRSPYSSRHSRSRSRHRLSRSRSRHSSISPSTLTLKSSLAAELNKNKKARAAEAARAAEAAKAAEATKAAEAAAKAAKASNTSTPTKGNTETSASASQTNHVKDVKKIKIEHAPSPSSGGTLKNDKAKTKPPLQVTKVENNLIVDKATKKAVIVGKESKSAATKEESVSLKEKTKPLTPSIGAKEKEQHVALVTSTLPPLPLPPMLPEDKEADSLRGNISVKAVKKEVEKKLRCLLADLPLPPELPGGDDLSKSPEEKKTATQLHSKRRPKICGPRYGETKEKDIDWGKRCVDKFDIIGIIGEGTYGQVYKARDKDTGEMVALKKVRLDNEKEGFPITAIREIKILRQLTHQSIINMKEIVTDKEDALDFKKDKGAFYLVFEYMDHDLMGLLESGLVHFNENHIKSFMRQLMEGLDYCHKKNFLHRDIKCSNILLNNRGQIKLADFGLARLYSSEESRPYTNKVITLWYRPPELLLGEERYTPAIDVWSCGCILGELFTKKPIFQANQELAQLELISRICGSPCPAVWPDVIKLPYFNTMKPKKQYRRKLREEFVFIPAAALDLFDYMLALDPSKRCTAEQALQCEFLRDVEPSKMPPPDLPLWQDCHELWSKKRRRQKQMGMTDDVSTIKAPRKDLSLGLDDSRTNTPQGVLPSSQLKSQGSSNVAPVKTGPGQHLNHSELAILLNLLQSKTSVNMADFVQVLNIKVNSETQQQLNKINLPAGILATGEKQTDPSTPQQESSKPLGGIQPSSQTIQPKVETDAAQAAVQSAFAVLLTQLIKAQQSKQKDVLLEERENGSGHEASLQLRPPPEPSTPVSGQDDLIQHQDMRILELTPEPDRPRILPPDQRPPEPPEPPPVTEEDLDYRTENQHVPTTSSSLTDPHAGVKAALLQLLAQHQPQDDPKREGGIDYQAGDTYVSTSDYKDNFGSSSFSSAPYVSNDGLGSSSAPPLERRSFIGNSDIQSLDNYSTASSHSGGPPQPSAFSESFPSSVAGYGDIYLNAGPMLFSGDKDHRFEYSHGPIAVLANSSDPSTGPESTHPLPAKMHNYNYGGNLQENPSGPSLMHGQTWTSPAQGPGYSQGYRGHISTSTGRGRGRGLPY
The series is described as follows: KINOMEscan scanMAX. It counts as binding. As to conditions: CDC2L5, 2000 nM. An excerpt: (§1) Nat. Biotechnol. 23, 329-336 (2005).
(§2) Percent Control (% Ctrl).
(§3) % Ctrl=100×(TS−CPOS)/(CNEG−CPOS) (eqn 1)

Another series deals with FLT3(ITD). The series is described as follows: KINOMEscan scanMAX. The note with it: 2000 nM. In kind it is binding.
Text: as §1, §2, §3

The next series relates to FLT3(ITD, D835V). Put plainly: KINOMEscan scanMAX. It counts as binding. The note with it: 2000 nM.
Text: as §1, §2, §3

The test system of a further series is FLT3(ITD, F691L). Put plainly: KINOMEscan scanMAX. It counts as binding. As to conditions: 2000 nM.
Text: as §1, §2, §3

The target of the next series is T2, PFCDPK1(P. falciparum) (Plasmodium falciparum, UniProt P62344).
T2 construct: DNA label (qPCR read-out); purchased DiscoveRx (KINOMEscan scanMAX)
T2 sequence (P62344 whole entry): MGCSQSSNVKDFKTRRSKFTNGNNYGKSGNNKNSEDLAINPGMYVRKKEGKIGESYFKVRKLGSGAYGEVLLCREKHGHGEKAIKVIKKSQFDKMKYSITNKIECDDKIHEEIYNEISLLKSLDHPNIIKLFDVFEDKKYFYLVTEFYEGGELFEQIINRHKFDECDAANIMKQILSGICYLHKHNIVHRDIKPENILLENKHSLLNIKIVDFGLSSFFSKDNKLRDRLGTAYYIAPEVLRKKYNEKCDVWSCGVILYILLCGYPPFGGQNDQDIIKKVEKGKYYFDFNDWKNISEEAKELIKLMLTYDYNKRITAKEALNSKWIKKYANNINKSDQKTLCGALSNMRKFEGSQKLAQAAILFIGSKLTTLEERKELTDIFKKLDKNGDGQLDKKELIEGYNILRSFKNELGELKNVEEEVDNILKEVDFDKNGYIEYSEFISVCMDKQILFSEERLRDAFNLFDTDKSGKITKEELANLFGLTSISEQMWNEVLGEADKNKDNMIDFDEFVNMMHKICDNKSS
Put plainly: KINOMEscan scanMAX. It counts as binding. As to conditions: 2000 nM.
Text: as §1, §2, §3

In another series the target is T3, PFPK5(P. falciparum) (Plasmodium falciparum, UniProt P61075).
T3 construct: purchased KINOMEscan (DiscoveRx) scanMAX panel
T3 sequence (P61075 whole entry): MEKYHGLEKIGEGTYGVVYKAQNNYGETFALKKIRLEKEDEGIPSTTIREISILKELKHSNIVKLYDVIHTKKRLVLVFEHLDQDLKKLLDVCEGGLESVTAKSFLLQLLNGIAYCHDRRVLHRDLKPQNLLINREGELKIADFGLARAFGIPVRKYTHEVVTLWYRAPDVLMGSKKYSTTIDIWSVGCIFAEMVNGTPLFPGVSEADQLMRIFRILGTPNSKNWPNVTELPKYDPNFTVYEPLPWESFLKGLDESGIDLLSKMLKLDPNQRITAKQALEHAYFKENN
Put plainly: KINOMEscan scanMAX. In kind it is binding. The note with it: 2000 nM.
Text: as §1, §2, §3

The next series concerns the target T4, PKNB(M. tuberculosis) (Mycobacterium tuberculosis, UniProt P9WI81).
T4 construct: purchased DiscoveRx (KINOMEscan scanMAX panel)
The series is described as follows: KINOMEscan scanMAX. The note with it: 2000 nM. In kind it is binding.
Text: as §1, §2, §3

A further series addresses T5, PRP4 (Homo sapiens, UniProt Q13523).
T5 construct: DNA label (qPCR read-out); purchased DiscoverX (KINOMEscan)
The series is described as follows: KINOMEscan scanMAX. In kind it is binding. The note with it: PRP4, 2000 nM.
Text: as §1, §2, §3

The nature of another series: in vivo. As to conditions: female, CD-1, mouse, serum, po, 30 mg/kg.
The nature of series [1]: Oral PK of 15u and 15u_D6, female CD-1 mice. As to conditions: 30 mg/kg, AUC within the first eight hours.
Series [2] concerns PSA expression in CRPC cell line C4-2. Put plainly: PSA expression in cell culture supernatant of C4-2 cells. It counts as cell-based. As to conditions: C4-2 culture supernatant, 4-day treatment, FBS-supplemented regular media. An excerpt: CDK8/19 inhibition decreases the expression of certain androgen-receptor (AR) inducible genes including PSA, the most common marker of prostate cancer, and the growth of castration-refractory prostate cancers (CRPC).

The subject of series [3] is MYC-CAP-CR cells. The series is described as follows: Short-term cell proliferation assay, MYC-CAP-CR. As to conditions: androgen-containing media. It counts as cell-based, murine. The source says:
(§4) MYC-CaP-CR cells (Ellis L. et al., 2012. Prostate 72(6):587-591) were selected for castration resistance from genetically engineered MYC-CaP cells that express MYC from an AR-responsive promoter (Watson P A, et al., 2005. Cancer Res 65(24):11565-11571). Castration resistance in these cells is associated with the overexpression of full-length AR rather than an AR variant, such as AR-V7 in 22rv1 (Olson B M, et al., 2017. Cancer immunology research 5(12):1074-1085).

The subject of series [4] is MYC-CAP-CR cells. The series is described as follows: Long-term clonogenic assay, MYC-CaP-CR. As to conditions: 1 μM Senexin B, 1 μM 15u, 5 μM enzalutamide. In kind it is cell-based, murine.
Text: as §4

The test system of series [5] is 4T1 murine TNBC lung metastasis. The series is described as follows: 4T1 breast cancer metastasis survival after primary tumor removal. It counts as in vivo, mouse. As to conditions: Senexin B medicated food (350 ppm) plus one oral dose 50 mg/kg. The protocol: 4T1 is a murine triple-negative breast cancer (TNBC) cell line, which is highly metastatic to the lungs. […] Parental and CDK8-knockdown 4T1 cells (n=10) were injected orthotopically in the mammary fat pad and the primary tumors were removed 17 days later. Following surgery, all the mice eventually died with lung metastases. […] However, the loss of CDK8 was associated with a strong increase in the survival of mice (FIG. 10C). […]

In series [6] the test system is CRPC cell line 22rv1 xenograft. The note with it: Senexin B 133 mg/kg once a day or 66 mg/kg twice a day (FIG. 8D).
In another series the test system is MYC-CaP-CR tumors. The series is described as follows: MYC-CaP-CR tumors subcutaneous in intact FVB male mice. In kind it is in vivo, mouse.
Text: as §4

Molecules are shown by their SMILES.

Usually AUC(0-t) stands for exposure summed from dosing to a finite time, without extrapolation to infinity.

T5 sequence (Q13523 whole entry): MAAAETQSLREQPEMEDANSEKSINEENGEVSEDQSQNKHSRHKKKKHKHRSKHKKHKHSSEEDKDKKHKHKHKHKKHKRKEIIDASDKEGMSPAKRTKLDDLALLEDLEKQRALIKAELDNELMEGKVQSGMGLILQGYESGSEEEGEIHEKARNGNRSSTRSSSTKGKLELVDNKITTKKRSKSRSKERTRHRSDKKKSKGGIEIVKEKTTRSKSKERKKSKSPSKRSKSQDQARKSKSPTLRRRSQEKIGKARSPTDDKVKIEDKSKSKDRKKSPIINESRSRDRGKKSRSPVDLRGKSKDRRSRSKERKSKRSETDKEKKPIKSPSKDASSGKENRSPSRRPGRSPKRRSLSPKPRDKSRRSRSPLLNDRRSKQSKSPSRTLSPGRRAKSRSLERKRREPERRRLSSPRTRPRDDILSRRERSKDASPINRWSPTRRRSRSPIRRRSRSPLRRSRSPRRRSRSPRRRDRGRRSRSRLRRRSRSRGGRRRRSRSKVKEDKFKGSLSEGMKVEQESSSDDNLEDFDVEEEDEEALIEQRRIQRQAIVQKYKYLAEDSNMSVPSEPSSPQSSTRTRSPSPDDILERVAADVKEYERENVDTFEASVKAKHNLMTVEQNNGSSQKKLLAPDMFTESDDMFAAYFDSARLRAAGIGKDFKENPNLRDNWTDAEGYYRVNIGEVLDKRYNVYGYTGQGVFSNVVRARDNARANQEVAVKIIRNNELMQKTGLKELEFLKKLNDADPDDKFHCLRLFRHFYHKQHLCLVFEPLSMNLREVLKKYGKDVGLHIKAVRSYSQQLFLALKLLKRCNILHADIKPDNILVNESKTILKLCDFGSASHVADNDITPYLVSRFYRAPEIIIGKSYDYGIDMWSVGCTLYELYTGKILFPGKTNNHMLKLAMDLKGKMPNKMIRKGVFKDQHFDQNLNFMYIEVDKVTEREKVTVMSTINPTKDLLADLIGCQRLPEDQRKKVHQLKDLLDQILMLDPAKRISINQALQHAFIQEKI
T4 sequence (P9WI81 whole entry): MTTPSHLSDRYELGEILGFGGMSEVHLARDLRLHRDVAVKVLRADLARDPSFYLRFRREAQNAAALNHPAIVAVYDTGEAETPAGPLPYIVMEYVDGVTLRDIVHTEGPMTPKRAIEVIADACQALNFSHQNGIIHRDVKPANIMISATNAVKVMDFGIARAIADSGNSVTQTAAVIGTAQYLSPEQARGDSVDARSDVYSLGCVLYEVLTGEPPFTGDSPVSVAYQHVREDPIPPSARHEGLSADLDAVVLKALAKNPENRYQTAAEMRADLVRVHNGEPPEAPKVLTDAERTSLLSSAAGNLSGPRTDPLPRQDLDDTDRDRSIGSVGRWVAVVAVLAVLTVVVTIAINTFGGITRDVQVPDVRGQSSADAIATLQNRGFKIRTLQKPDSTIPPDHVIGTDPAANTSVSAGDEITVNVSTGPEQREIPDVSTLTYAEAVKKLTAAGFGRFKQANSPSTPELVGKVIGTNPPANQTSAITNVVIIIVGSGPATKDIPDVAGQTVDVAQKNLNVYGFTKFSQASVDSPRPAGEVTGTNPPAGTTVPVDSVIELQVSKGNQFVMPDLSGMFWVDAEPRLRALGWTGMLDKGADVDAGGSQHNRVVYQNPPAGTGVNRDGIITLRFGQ

As to `[2H]C([2H])([2H])N(C(=O)c1ccc(N2CCCN(c3ccnc4sc(C(N)=O)c(N)c34)CC2)cc1)C([2H])([2H])[2H]` [Compound 15u_D6, 3-amino-4-(4-(4-(bis(methyl-d3)carbamoyl)phenyl)-1,4-diazepan-1-yl)thieno[2,3-b]pyridine-2-carboxamide], the IC50 in the series on CDK8/19 came to 7.7 nM. The “% Ctrl” value is recorded as 80 % Ctrl on CDC2L5; 72 % Ctrl in the series on FLT3(ITD); 34 % Ctrl in the series on FLT3(ITD, D835V); 75 % Ctrl in the series with FLT3(ITD, F691L); 61 % Ctrl at PFCDPK1(P. falciparum); 67 % Ctrl on PFPK5(P. falciparum). Besides, the results for the “% Ctrl” value at PKNB(M. tuberculosis) and at PRP4 were 90 % Ctrl and 88 % Ctrl, respectively. The AUC(0-t) in the series “in vivo” came to 7400 ng·h/mL. In [1], the “PK of the D6 derivative compared with 15u” value is on record as “slightly improved the PK”.

Compound `CN1CCN(C(=O)c2ccc3cc(CCNc4ncnc5ccc(C#N)cc45)ccc3c2)CC1` [Senexin B, reference compound] showed an IC50 in [2] of 255 nM. Besides, in the series on MYC-CAP-CR cells [3], the MYC-CAP-CR cell growth result is given as “little effect”. For the same compound, the MYC-CaP-CR colony formation entry in the series with MYC-CAP-CR cells [4] was “decreased MYC-CaP-CR colony formation”. The “survival after removal of the primary 4T1 tumor” value in series [5] is reported as “statistically significant but moderate increase in survival”. Also, the “22rv1 growth in castrated mice” value in series [6] was “significantly inhibited 22rv1 growth”.

As for `CNC(=O)c1ccc(N2C(=S)N(c3ccc(C#N)c(C(F)(F)F)c3)C(=O)C2(C)C)cc1F` [enzalutamide], in the series with MYC-CAP-CR cells [3], the MYC-CAP-CR cell growth entry was “paradoxically stimulated the growth”. Besides, in the series with MYC-CAP-CR cells [4], the MYC-CaP-CR colony formation result was “decreased MYC-CaP-CR colony formation”. In the series on MYC-CaP-CR tumors, the “MYC-CaP-CR tumor volume and weight” value is reported as “modest effect”.

For the origin of these results see US20220226343A1, “3-AMINO-4-[4-[4 (DIMETHYLCARBAMOYL) PHENYL]-1,4-DIAZEPAN-1-YL]THIENO[2,3-B]PYRIDINE-2-CARBOXAMIDE FOR USE IN CANCER THERAPY AND FORMULATIONS COMPRISING THE SAME” (University of South Carolina, priority 2019, published 2022).
